The subject of assay [1] is HCV replicon 1AQ30D. Description: Cell-based HCV Replicon Assay B, replicon 1AQ30D. As to conditions: for IC50: Hepatitis C virus, read-out: 1A Q30D IC50 (nM), replicon 1AQ30D; for pIC50: read-out: 1A Q30D IC50, replicon 1AQ30D. The method, boiled down:
(§1)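 EC50 defined as the drug concentration giving a CT increase of 1 above projected baseline, from real-time RT-PCR of replicon RNA using genotype-specific primers and probes. Cells were seeded in 5% FBS, dosed after 24 h and incubated 3 days before lysis.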

The subject of assay [2] is HCV replicon 2B. Description: Cell-based HCV Replicon Assay A, replicon 2B. The note with it: for pIC50: read-out: 2B IC50, replicon 2B; for IC50: Hepatitis C virus, read-out: 2B IC50 (nM), replicon 2B. The method, boiled down:
(§2)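 Readout: replicon RNA by real-time RT-PCR, normalised to co-amplified cyclophilin and quantified against replicon total-RNA standard curves. Cells (2000/well) treated 3 days in medium with 5% FBS and 0.5% DMSO, compound in 10 serial dilutions from starting concentrations of 333.3 nM to 1.667 nM.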
(In general: A replicon is a self-replicating genome or part of one, used to study replication in cells.)

Assay [3] concerns HCV replicon 1A. Description: Cell-based HCV Replicon Assay A, replicon 1A. A digest of the protocol:
as §2

Assay [4] relates to HCV replicon 1B. Put plainly: Cell-based HCV Replicon Assay B, replicon 1B. The method, boiled down:
as §1

For assay [5], the system named is HCV replicon 1AY93H. Put plainly: Cell-based HCV Replicon Assay A, replicon 1AY93H. As to conditions: for pIC50: read-out: 1A Y93H IC50, replicon 1AY93H; for IC50: Hepatitis C virus, read-out: 1A Y93H IC50 (nM), replicon 1AY93H. The method, boiled down: as §2

pIC50: −log10 of the molar value. Read-outs that look alike come from different tables or passages of the source.

A word on the IC50: it is the concentration needed to halve the response being measured. As usually defined, the pIC50 is the IC50 on a negative log10 scale, so that one unit is a factor of ten.

On to `COC(=O)NC(C(=O)N1CCC[C@H]1c1ncc(-c2ccc3c(c2)cc2n3C(c3cnc(C(C)(C)O)s3)Oc3cc(-c4cnc([C@@H]5CCCN5C(=O)[C@@H](NC(=O)OC)C(C)C)[nH]4)cc(F)c3-2)[nH]1)C1C[C@@H](C)O[C@@H](C)C1` (single isomer, unassigned) [Compound 74], for which the IC50 in assay [1] was 0.021 nM. For the same compound, the pIC50 in assay [2] was 11.30; in assay [3] it was 11.44; in assay [4] it was 11.40; in assay [5], 11.28.

On to `COC(=O)NC(C(=O)N1CCC[C@H]1c1ncc(-c2ccc3c(c2)cc2n3C(c3nc(C(F)(F)F)cs3)Oc3cc(-c4cnc([C@@H]5CCCN5C(=O)[C@@H](NC(=O)OC)C(C)C)[nH]4)cc(F)c3-2)[nH]1)C1C[C@@H](C)O[C@@H](C)C1` (single isomer, unassigned) [Compound 76], for which, in assay [1], the IC50 came to 0.422 nM. Also, the pIC50 is 9.85 in assay [2], 11.57 in assay [3], 11.52 in assay [4] (Hepatitis C virus) and 10.49 in assay [5].

On to `COC(=O)N[C@H](C(=O)N1CCC[C@H]1c1ncc(-c2cc(F)c3c(c2)OC(c2cnc(-c4ccc(OC(F)(F)F)cc4)s2)n2c-3cc3cc(-c4cnc([C@@H]5CCCN5C(=O)[C@@H](NC(=O)OC)C(C)C)[nH]4)ccc32)[nH]1)C(C)C` (single isomer, unassigned) [Compound 77], for which the pIC50 in assay [1] is 10.28; in assay [2], 11.30; in assay [3] it was 11.46; in assay [4] (Hepatitis C virus) it was 12.00; in assay [5], 11.25.

On to `COC(=O)N[C@H](C(=O)N1CCC[C@H]1c1ncc(-c2cc(F)c3c(c2)OC(c2cnc(-c4ccc(OC(F)(F)F)cc4)s2)n2c-3cc3cc(-c4cnc([C@@H]5CCCN5C(=O)[C@@H](NC(=O)OC)C(C)C)[nH]4)ccc32)[nH]1)C(C)C` (single isomer, unassigned) [Compound 78], for which the pIC50 in assay [1] is 8.73; in assay [2], 9.71; in assay [3] it was 11.85; in assay [4] it was 12.00; in assay [5] it was 9.78.

`CCc1ncc(C2Oc3cc(-c4cnc([C@@H]5CCCN5C(=O)[C@@H](NC(=O)OC)C(C)C)[nH]4)cc(F)c3-c3cc4cc(-c5cnc([C@@H]6CCCN6C(=O)[C@@H](NC(=O)OC)C(C)C)[nH]5)ccc4n32)s1` (single isomer, unassigned) [Compound 81]: the IC50 in assay [1] was found to be 0.384 nM. Besides, the pIC50 is 10.57 in assay [2], 11.57 in assay [3] (Hepatitis C virus), 11.70 in assay [4] (Hepatitis C virus) and 10.72 in assay [5].

For the compound `CCc1ncc(C2Oc3cc(-c4cnc([C@@H]5CCCN5C(=O)[C@@H](NC(=O)OC)C(C)C)[nH]4)cc(F)c3-c3cc4cc(-c5cnc([C@@H]6C[C@H]7C[C@H]7N6C(=O)[C@@H](CC(=O)OC)C(C)C)[nH]5)ccc4n32)s1` (single isomer, unassigned) [Compound 83], the IC50 in assay [1] came to 0.12 nM. In addition, the pIC50 in assay [2] was 10.32; in assay [3] (Hepatitis C virus), 11.52; in assay [4] (Hepatitis C virus) it was 11.52; in assay [5], 11.17.

Regarding `COC(=O)N[C@H](C(=O)N1CCC[C@H]1c1ncc(-c2cc(F)c3c(c2)OC(c2nc4c(s2)CCCC4)n2c-3cc3cc(-c4cnc([C@@H]5CCCN5C(=O)[C@@H](NC(=O)OC)C(C)C)[nH]4)ccc32)[nH]1)C(C)C` (single isomer, unassigned) [Compound 87], the results for the pIC50 in assay [1], in assay [3] (Hepatitis C virus) and in assay [4] (Hepatitis C virus) were 10.17, 11.60 and 9.06, respectively. The IC50 came to 0.003 nM in assay [2] and 0.0714 nM in assay [5].

Regarding `COC(=O)N[C@H](C(=O)N1CCC[C@H]1c1ncc(-c2cc(F)c3c(c2)OC(c2cnc(C(C)C)s2)n2c-3cc3cc(-c4cnc([C@@H]5C[C@H]6C[C@H]6N5C(=O)[C@@H](NC(=O)OC)C(C)C)[nH]4)ccc32)[nH]1)C(C)C` (single isomer, unassigned) [Compound 89], the IC50 in assay [1] was 0.081 nM; in assay [2], 0.029 nM; in assay [5], 0.0028 nM. The pIC50 in assay [3] (Hepatitis C virus) is 11.77; in assay [4] (Hepatitis C virus), 11.52.

Regarding `CCCc1ncc(C2Oc3cc(-c4cnc([C@@H]5CCCN5C(=O)[C@@H](NC(=O)OC)C(C)C)[nH]4)cc(F)c3-c3cc4cc(-c5cnc([C@@H]6C[C@H]7C[C@H]7N6C(=O)[C@@H](NC(=O)OC)C(C)C)[nH]5)ccc4n32)s1` (single isomer, unassigned) [Compound 90], the IC50 in assay [1] was determined as 0.09 nM. The pIC50 in assay [2] is 10.74; in assay [3] (Hepatitis C virus), 11.60; in assay [4] (Hepatitis C virus) it was 11.52; in assay [5], 11.42.

Regarding `CCc1ncc(C2Oc3cc(-c4cnc([C@@H]5CCCN5C(=O)[C@@H](NC(=O)OC)C(C)C)[nH]4)cc(F)c3-c3cc4cc(-c5cnc([C@@H]6C[C@H]7C[C@H]7N6C(=O)C(NC(=O)OC)C6CCOC(C)(C)C6)[nH]5)ccc4n32)s1` (single isomer, unassigned) [Compound 92], the negative-log IC50 (pIC50) in assay [1] is 10.19; in assay [2], 11.30; in assay [3] (Hepatitis C virus) it was 11.43; in assay [4] (Hepatitis C virus) it was 11.22; in assay [5] it was 11.35.

As to `CCc1ncc(C2Oc3cc(-c4cnc([C@@H]5CCCN5C(=O)[C@@H](NC(=O)OC)C(C)C)[nH]4)cc(F)c3-c3cc4cc(-c5cnc([C@@H]6C[C@H]7C[C@H]7N6C(=O)C(NC(=O)OC)C6CCOC(C)(C)C6)[nH]5)ccc4n32)s1` (single isomer, unassigned) [Compound 93], the pIC50 in assay [1] was 9.20; in assay [2], 10.16; in assay [3] it was 11.44; in assay [4], 11.52; in assay [5], 10.37.

As for `CCc1ncc(C2Oc3cc(-c4cnc([C@@H]5CCCN5C(=O)[C@@H](NC(=O)OC)C(C)C)[nH]4)cc(F)c3-c3cc4cc(-c5cnc([C@@H]6C[C@H]7C[C@H]7N6C(=O)C(NC(=O)OC)C6CCOC(C)(C)C6)[nH]5)ccc4n32)s1` (single isomer, unassigned) [Compound 94], the pIC50 is 10.35 in assay [1]; 11.40 in assay [2]; 11.52 in assay [3]; 11.52 in assay [4]; 11.46 in assay [5].

In the case of `CCc1ncc(C2Oc3cc(-c4cnc([C@@H]5CCCN5C(=O)[C@@H](NC(=O)OC)C(C)C)[nH]4)cc(F)c3-c3cc4cc(-c5cnc([C@@H]6C[C@H]7C[C@H]7N6C(=O)C(NC(=O)OC)C6CCOC(C)(C)C6)[nH]5)ccc4n32)s1` (single isomer, unassigned) [Compound 95], the pIC50 in assay [1] was 9.48; in assay [2] it was 10.07; in assay [3] it was 11.54; in assay [4] it was 11.30; in assay [5], 10.43.

`CCc1ncc(C2Oc3cc(-c4cnc([C@@H]5CCCN5C(=O)[C@@H](NC(=O)OC)C(C)C)[nH]4)cc(F)c3-c3cc4cc(-c5cnc([C@@H]6C[C@H]7C[C@H]7N6C(=O)[C@@H](NC(=O)OC)C6C[C@@H](C)O[C@@H](C)C6)[nH]5)ccc4n32)s1` (single isomer, unassigned) [Compound 96]: the pIC50 was 10.70 in assay [1]; 11.22 in assay [2]; 11.62 in assay [3] (Hepatitis C virus); 11.52 in assay [4] (Hepatitis C virus); 11.43 in assay [5].

As to `CCc1ncc(C2Oc3cc(-c4cnc([C@@H]5CCCN5C(=O)[C@@H](NC(=O)OC)C(C)C)[nH]4)cc(F)c3-c3cc4cc(-c5cnc([C@@H]6C[C@H]7C[C@H]7N6C(=O)[C@@H](NC(=O)OC)C6C[C@@H](C)O[C@@H](C)C6)[nH]5)ccc4n32)s1` (single isomer, unassigned) [Compound 97], the pIC50 in assay [1] was 9.54; in assay [2], 10.01; in assay [3], 11.60; in assay [4], 11.52; in assay [5], 10.56.

Take `CCCc1ncc(C2Oc3cc(-c4cnc([C@@H]5CCCN5C(=O)[C@@H](NC(=O)OC)C(C)C)[nH]4)cc(F)c3-c3cc4cc(-c5cnc([C@@H]6C[C@H]7C[C@H]7N6C(=O)C(NC(=O)OC)C6CCOC(C)(C)C6)[nH]5)ccc4n32)s1` (single isomer, unassigned) [Compound 104]: the pIC50 was 10.55 in assay [1]; 11.40 in assay [2]; 11.55 in assay [3] (Hepatitis C virus); 11.52 in assay [4] (Hepatitis C virus); 11.39 in assay [5].

As for `CCCc1ncc(C2Oc3cc(-c4cnc([C@@H]5CCCN5C(=O)[C@@H](NC(=O)OC)C(C)C)[nH]4)cc(F)c3-c3cc4cc(-c5cnc([C@@H]6C[C@H]7C[C@H]7N6C(=O)C(NC(=O)OC)C6CCOC(C)(C)C6)[nH]5)ccc4n32)s1` (single isomer, unassigned) [Compound 106], the pIC50 in assay [1] was 9.55; in assay [2] it was 10.17; in assay [3], 11.49; in assay [4] it was 11.30; in assay [5], 10.47.

Regarding `CCCc1ncc(C2Oc3cc(-c4cnc([C@@H]5CCCN5C(=O)[C@@H](NC(=O)OC)C(C)C)[nH]4)cc(F)c3-c3cc4cc(-c5cnc([C@@H]6C[C@H]7C[C@H]7N6C(=O)C(NC(=O)OC)C6CCOC(C)(C)C6)[nH]5)ccc4n32)s1` (single isomer, unassigned) [Compound 107], the pIC50 is 9.63 in assay [1]; 10.77 in assay [2]; 11.59 in assay [3]; 11.40 in assay [4]; 10.53 in assay [5].

(Values after US9555038B2, “Heterocycle-substituted tetracyclic compounds and methods of use thereof for the treatment of viral diseases” (Merck Sharp & Dohme Corp., priority 2013, dated 2017).)
